Data from patent US20220372040A1, “METTL3 MODULATORS” (Accent Therapeutics, Inc., priority 2020, published 2022).

What was measured:
METTL3/METTL14 = METTL3/METTL14 (Homo sapiens, UniProt Q86U44); experiment: METTL3-14 standard enzyme assay (3H-SAM flashplate scintillation); assay type: biochemical; details: METTL3/METTL14 2.5 nM, RNA 100 nM, 3H-SAM 100 nM, 30 min
Method in brief: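 METTL3/METTL14 (2.5 nM final) preincubated 5 min with compound in 20 mM HEPES pH 7.5, 50 mM KCl, 250 μM MgCl2, 1 mM DTT, ambient temperature; started with 100 nM 3′-biotinylated RNA (UCUGGACUAAA) and 100 nM 3H-SAM. After 30 min, quenched with 15 μM cold SAM; methylated RNA captured on streptavidin flashplates and counted by scintillation.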

METTL1/WDR4 = METTL1/WDR4 (Homo sapiens, UniProt Q9UBP6); experiment: METTL1 assay (3H-SAM flashplate scintillation); assay type: biochemical; details: METTL1/WDR4 6.25 nM, RNA 25 nM, 3H-SAM 60 nM, 20 min; read-out: METTL1 IC50
METTL1/WDR4, sequence (Q9UBP6 whole entry, species assumed): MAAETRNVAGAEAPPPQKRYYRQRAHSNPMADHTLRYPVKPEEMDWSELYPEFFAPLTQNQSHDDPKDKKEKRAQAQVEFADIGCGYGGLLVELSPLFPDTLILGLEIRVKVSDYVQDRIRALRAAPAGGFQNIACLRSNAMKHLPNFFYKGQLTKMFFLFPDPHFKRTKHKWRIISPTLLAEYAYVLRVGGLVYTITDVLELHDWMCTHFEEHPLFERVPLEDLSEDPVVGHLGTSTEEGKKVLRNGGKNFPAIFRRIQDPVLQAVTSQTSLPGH
METTL1/WDR4, sequence (P57081 whole entry partner, species assumed): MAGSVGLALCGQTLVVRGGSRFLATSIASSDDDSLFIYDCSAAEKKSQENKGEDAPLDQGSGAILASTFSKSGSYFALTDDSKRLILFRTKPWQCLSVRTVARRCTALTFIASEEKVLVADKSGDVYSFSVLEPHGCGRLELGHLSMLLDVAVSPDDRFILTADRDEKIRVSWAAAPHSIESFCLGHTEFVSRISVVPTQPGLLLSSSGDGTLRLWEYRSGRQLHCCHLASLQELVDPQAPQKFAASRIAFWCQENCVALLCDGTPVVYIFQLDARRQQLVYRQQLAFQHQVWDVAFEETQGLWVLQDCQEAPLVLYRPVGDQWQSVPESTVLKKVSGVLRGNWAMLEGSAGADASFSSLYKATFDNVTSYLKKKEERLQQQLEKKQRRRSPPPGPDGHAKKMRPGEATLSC
Method in brief: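 Radiometric methyltransfer by METTL1/WDR4 (6.25 nM f.c., 5 min preincubation) at ambient temperature in HEPES pH 7.5, KCl, MgCl2, DTT; started with 25 nM 3′-biotinylated RNA and 60 nM 3H-SAM, run 20 min, quenched with 15 μM cold SAM. Product captured on streptavidin flashplates (2 h, 25° C), counted by scintillation.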

PRMT5-MEP50 = PRMT5-MEP50 (Homo sapiens, UniProt O14744); experiment: PRMT5 assay (3H-SAM flashplate scintillation); assay type: biochemical; details: PRMT5-MEP50 2.5 nM, histone H4 peptide 100 nM, 3H-SAM 250 nM, 60 min
PRMT5-MEP50, sequence (O14744 whole entry): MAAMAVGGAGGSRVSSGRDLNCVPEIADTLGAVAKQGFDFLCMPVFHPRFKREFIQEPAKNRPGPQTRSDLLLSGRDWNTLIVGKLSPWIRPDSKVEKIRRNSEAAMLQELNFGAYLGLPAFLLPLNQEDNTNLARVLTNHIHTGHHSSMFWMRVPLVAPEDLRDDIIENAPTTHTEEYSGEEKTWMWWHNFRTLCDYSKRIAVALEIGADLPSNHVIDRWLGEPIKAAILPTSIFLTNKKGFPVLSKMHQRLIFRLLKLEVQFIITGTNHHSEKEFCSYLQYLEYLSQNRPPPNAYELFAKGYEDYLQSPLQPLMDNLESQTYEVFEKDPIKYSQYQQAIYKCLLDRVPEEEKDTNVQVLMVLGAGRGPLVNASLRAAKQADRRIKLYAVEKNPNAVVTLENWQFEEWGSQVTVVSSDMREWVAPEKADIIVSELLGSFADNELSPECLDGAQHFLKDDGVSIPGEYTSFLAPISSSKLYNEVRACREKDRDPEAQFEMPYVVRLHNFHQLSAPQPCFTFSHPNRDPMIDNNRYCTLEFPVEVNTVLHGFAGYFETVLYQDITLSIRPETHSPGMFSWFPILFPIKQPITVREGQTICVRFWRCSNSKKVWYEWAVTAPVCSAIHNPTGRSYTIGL
PRMT5-MEP50, sequence (Q9BQA1 whole entry partner): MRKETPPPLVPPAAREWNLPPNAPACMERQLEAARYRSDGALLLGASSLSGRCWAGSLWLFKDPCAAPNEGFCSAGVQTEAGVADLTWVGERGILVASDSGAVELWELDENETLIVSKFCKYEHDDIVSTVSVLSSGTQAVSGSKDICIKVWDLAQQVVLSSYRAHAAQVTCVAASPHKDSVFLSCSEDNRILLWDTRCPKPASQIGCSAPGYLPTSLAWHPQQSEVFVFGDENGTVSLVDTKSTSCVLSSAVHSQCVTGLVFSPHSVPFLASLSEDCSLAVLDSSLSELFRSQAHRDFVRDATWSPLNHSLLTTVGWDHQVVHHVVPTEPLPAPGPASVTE
Method in brief: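 PRMT5-MEP50 (2.5 nM final) preincubated 5 min with compound, then reacted 60 min at ambient temperature with 100 nM biotinylated N-acetyl histone H4 peptide and 250 nM 3H-SAM in 20 mM Tris-HCl pH 8.0, 1 mM DTT, 0.01% Tween. Quenched with 15 μM cold SAM; methylated peptide captured on streptavidin flashplates, scintillation counted.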

[1] = tested on: m^6 A in cellular mRNA of MOLM-13 cells; experiment: m^6 A-mRNA LC-MS/MS assay (m^6 A cellular assay); assay type: cell-based; details: Homo sapiens, 24 hours incubation, LC-MS/MS of m^6 A/A in mRNA
Procedure: m^6 A-mRNA LC-MS/MS Assay
5×10^6 MOLM-13 (DSMZ) cells were seeded into 10 cm dishes in RPMI 1640 media containing 10% fetal bovine serum and placed in a humidified tissue culture incubator at 37° C. overnight. Compounds were resuspended in 100% DMSO and dosed into each dish at a fixed concentration to comprise an 8-point dose response with a 4-fold serial dilution ranging from 25 μM to 1.5 nM in 0.25% DMSO final and allowed to incubate for 24 hours in a humidified tissue culture incubator at 37° C. Cells were harvested by centrifugation followed by mRNA extraction using DTRECT Dynabeads mRNA DTRECT kit (Life Technologies). mRNA was quantified on NanoDrop spectrophotometer (Thermo Fisher Scientific) and digested into single nucleosides using Nucleoside Digestion Mix (New England Biolabs). Nucleosides are quantified with retention time on a BEH […] column (Waters) and the nucleoside-to-base ion mass transition of 282.1-150.1 (m^6 A) and 268-136 (A) on an API 6500+ triple quadrupole mass spectrometer. Quantification is performed in comparison with the standard curve, obtained from pure nucleoside standards (Selleck Chemicals) running with the same batch of samples. Percentage m^6 A in cellular mRNA is calculated as 100*(m^6 A/A).

METTL16 = biological target: T1, METTL16 (Homo sapiens, UniProt Q86W50); experiment: METTL16 assay (3H-SAM flashplate scintillation); assay type: biochemical; details: METTL16 100 nM, RNA 50 nM, 3H-SAM 200 nM, SAM 800 nM, 20 min
T1 sequence (Q86W50 1-562): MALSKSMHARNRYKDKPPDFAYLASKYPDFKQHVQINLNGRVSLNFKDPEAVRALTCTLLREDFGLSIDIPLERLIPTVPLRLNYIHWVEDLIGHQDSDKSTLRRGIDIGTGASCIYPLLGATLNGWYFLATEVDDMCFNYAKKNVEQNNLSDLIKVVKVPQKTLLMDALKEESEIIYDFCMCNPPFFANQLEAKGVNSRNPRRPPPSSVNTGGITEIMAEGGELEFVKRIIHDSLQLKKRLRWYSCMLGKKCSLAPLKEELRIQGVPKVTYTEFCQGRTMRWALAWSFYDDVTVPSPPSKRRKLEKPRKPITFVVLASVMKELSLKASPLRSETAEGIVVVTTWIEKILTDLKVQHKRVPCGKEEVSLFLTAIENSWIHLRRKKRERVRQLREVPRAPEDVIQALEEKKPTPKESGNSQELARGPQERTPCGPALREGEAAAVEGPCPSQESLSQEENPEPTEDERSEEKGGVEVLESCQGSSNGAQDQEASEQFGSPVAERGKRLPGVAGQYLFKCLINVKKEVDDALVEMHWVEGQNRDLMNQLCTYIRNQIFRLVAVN
Method in brief: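 Radiometric methyltransferase reaction at ambient temperature in 20 mM HEPES pH 7.5, 50 mM KCl, 1 mM DTT, with 100 nM enzyme preincubated 5 min with compound. It was started with 50 nM 3′-biotinylated RNA, 200 nM 3H-SAM plus 800 nM cold SAM, run 20 min, then quenched with excess cold SAM. Product was captured on streptavidin flashplates and scintillation-counted.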

MOLM-13 cells = experiment: MOLM-13 96 Hour cell proliferation assay (Cell Titer-Glo); assay type: cell-based; details: Homo sapiens
Procedure: MOLM-13 96 Hour Cell Proliferation Assay
MOLM-13 (DSMZ) cells were seeded at 600 cells per well in a volume of 44 μL in a Greiner Bio-One CELLSTAR™ 384 Well Polystyrene Cell Culture clear bottom microplate in RPMI 1640 media containing 10% fetal bovine serum using a Multidrop Combi (ThermoFisher Scientific). Cells were incubated overnight at 37° C. in a humidified tissue culture incubator. To prevent evaporation or to reduce edge effect, add 50 μL or more H2O to an empty plate, cover, and place on top of the cell plates. The Mosquito® HTS Liquid Handler was used to make a compound/media intermediate plate by aliquoting 1 μL of compound from the initial compound dilution plate (concentrations ranging from 10.0 mM to 38.0 nM in 100% DMSO) into Bio-One 384-well polypropylene conical bottom microplate containing 49 μL of media containing the appropriate serum (50-fold dilution, 2% DMSO, compound concentrations ranging from 200.0 μM and […]). The Apricot liquid handling system was used to transfer 6.2 μL compounds from the intermediate plate into the seeding plate containing 44 μL cells (8-fold dilution spanning concentrations 25.0 μM to […], 0.25% DMSO final), and placed in a humidified tissue culture incubator at 37° C. After 96 hours, 25 μL of Cell Titer-Glo reagent (Promega) was added to each well using an Integra liquid handling system. The plate was protected from light using TopSeal-A (Black) film over the entire plate, added White Bottom seal film on the bottom of the entire plate for a better reading on the Envision, and placed on an IKA plate shaker for at 300 rpm for 10 minutes at room temperature. The plate was read on an EnVision plate reader (Perkin Elmer) using the Ultra Sensitive Luminescence protocol. Data analysis was performed by normalizing the raw luminescence units to an average of the positive control values for staurosporine (100% cell death) and the negative control values for DMSO (0% cell death). An IC50 was calculated using a 4-parameter logistic nonlinear regression model in GraphPad Prism.

METTL3/METTL14, sequence (Q86U44 whole entry, species assumed): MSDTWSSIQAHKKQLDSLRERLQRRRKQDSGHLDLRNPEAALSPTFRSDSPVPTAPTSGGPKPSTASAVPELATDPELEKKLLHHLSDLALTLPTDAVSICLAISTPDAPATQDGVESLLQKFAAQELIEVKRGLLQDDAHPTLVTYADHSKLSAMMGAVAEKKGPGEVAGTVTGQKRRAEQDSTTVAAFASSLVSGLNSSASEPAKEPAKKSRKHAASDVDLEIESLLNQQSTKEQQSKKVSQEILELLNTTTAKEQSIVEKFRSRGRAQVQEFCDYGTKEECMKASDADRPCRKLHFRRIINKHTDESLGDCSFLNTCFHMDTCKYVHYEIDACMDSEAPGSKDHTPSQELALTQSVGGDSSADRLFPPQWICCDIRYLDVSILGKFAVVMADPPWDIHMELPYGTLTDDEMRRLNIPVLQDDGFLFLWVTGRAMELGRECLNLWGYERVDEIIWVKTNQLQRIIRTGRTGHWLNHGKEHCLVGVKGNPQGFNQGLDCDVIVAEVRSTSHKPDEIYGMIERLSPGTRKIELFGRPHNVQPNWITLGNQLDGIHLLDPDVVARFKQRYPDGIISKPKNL
METTL3/METTL14, sequence (Q9HCE5 whole entry partner, species assumed): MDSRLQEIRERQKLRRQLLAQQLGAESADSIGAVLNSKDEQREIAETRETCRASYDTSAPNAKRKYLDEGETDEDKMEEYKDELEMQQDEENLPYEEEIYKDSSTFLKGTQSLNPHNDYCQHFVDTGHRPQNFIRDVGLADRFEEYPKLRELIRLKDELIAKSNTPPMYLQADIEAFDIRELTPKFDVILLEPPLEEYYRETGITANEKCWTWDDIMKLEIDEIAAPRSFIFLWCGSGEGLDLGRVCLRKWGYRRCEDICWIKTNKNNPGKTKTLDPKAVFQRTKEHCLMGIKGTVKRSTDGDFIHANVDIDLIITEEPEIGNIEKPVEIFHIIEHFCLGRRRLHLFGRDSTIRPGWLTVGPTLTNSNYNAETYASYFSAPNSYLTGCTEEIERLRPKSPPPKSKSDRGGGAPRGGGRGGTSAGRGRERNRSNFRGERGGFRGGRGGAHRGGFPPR

Row | IC50 (METTL3/METTL14) [µM] | IC50 (PRMT5-MEP50) [µM] | IC50 [1] [µM] | IC50 (MOLM-13 cells) [µM] | SMILES | IC50 (METTL1/WDR4) [µM] | IC50 (METTL16) [µM]
1 | < 0.01 | > 1 | ≥ 10 |  | CCc1cc(N)c2ccc(OCc3cncc(-n4cc(Cl)c5c(N)ncnc54)c3)cc2n1 [Compound I-52] |  | > 1
2 | < 0.01 | > 1 | < 1 | < 1 | Cn1ccc(-c2cn(-c3cncc(CCc4ccc5ccc(N6CCC6)nc5c4)c3)c3ncnc(N)c23)n1 [Compound I-104] |  | 
3 | < 0.01 | > 1 | < 1 | < 1 | CCNc1ccc2ccc(CCc3cncc(-n4cc(-c5ccn(C)n5)c5c(N)ncnc54)c3)cc2n1 [Compound I-106] |  | 
4 | < 0.01 | > 1 | 1 to 10 | 1 to 10 | CCc1cc(N2CCOCC2)c2ccc(OCc3cncc(-n4ccc5c(N)ncnc54)c3)cc2n1 [Compound I-108] |  | 
5 | < 0.01 |  | 1 to 10 | < 1 | CCc1cc(NC)c2ccc(OCc3cncc(-n4cc(-c5ccn(C)n5)c5c(N)ncnc54)c3)cc2n1 [Compound I-135] |  | 
6 | < 0.01 |  | 1 to 10 | < 1 | CCc1cc(N(C)C2CC2)c2ccc(OCc3cncc(-n4cc(-c5ccn(C)n5)c5c(N)ncnc54)c3)cc2n1 [Compound I-136] |  | 
7 | < 0.01 |  | 1 to 10 | < 1 | CCc1cc(N(C)CC2CC2)c2ccc(OCc3cncc(-n4cc(-c5ccn(C)n5)c5c(N)ncnc54)c3)cc2n1 [Compound I-137] |  | 
8 | < 0.01 |  | 1 to 10 | < 1 | CCc1cc(NCCOC)c2ncc(OCc3cncc(-n4cc(-c5ccn(C)n5)c5c(N)ncnc54)c3)cc2n1 [Compound I-138] |  | 
9 | < 0.01 |  | < 1 | < 1 | Nc1ncnc2c1c([C@@H]1CCCO1)cn2-c1cncc(COc2ccc3ccc(N4CCC4)nc3c2)c1 [Compound I-145] |  | 
10 | < 0.01 |  | ≥ 10 | < 1 | CCc1cc(N(C)C)c2ccc(OCc3cncc(-n4cc(-c5ccn(C)n5)c5c(N)ncnc54)c3)cc2n1 [Compound I-147] |  | 
11 | < 0.01 |  | 1 to 10 | < 1 | CCc1cc(N(C)CCN(C)C)c2ccc(CCc3cncc(-n4cc(-c5ccn(C)n5)c5c(N)ncnc54)c3)cc2n1 [Compound I-155] |  | 
12 | < 0.01 |  | 1 to 10 | < 1 | CCc1cc(NCCN(C)C)c2c(F)cc(CCc3cncc(-n4cc(-c5ccn(C)n5)c5c(N)ncnc54)c3)cc2n1 [Compound I-227] |  | 
13 | < 0.01 |  | ≥ 10 | 1 to 10 | CCc1cc(NCCN(C)C)c2c(F)cc(OCc3cncc(-n4cc(-c5ccn(C)n5)c5c(N)ncnc54)c3)cc2n1 [Compound I-230] |  | 
14 | < 0.01 | > 1 | ≥ 10 | 1 to 10 | CNc1cc(CCCN2CCOCC2)c2ccc(OCc3cncc(-n4ccc5c(N)ncnc54)c3)cc2n1 [Compound I-233] |  | 
15 | < 0.01 |  | 1 to 10 | 1 to 10 | CNc1ccc2ccc(OCc3cncc(-n4cc(-c5ccc(CNCCS(C)(=O)=O)o5)c5c(N)ncnc54)c3)cc2n1 [Compound I-236] |  | 

Row | SMILES | IC50 (METTL3/METTL14) [µM] | IC50 (PRMT5-MEP50) [µM] | IC50 [1] [µM] | IC50 (MOLM-13 cells) [µM] | IC50 (METTL1/WDR4) [µM] | IC50 (METTL16) [µM]
16 | CNc1ccc2ccc(OCc3cncc(-n4cc(Cl)c5c(N)ncnc54)n3)cc2n1 [Compound I-20] | < 0.01 | > 1 | 1 to 10 |  | > 1 | 
17 | CN(C)CCNc1cc(C2CCC2)nc2cc(OCc3cncc(-n4ccc5c(N)ncnc54)c3)ccc12 [Compound I-92] | < 0.01 | > 1 | 1 to 10 | < 1 | > 1 | 
18 | CC(C)c1cc(N2CCNCC2)c2ccc(OCc3cncc(-n4ccc5c(N)ncnc54)c3)cc2n1 [Compound I-95] | < 0.01 | > 1 | 1 to 10 | < 1 | > 1 | 
19 | CNc1ccc2ccc(CCc3cncc(-n4cc(C5CCCC5)c5c(N)ncnc54)n3)cc2n1 [Compound I-110] | < 0.01 | > 1 | 1 to 10 |  | > 1 | > 1
